Test results from patent US20080242594A1, “Methods for Promoting Stem Cell Proliferation and Survival” (priority 2005, published 2008).

Assays:
H9 hES cells = assay: hES colony number formation, H9; assay type: cell-based, human; conditions: H9 line
Excerpt: (§1) The human ES cell lines HSF-6 (University of California, San Francisco; NIH # UC06, Passage 38-120) and H1 and H9 (WiCell Research Institute, NIH # WA01 and […]) were maintained on mouse embryonic fibroblasts (MEF) according to the suppliers' protocols. Immunocytochemistry and FACS analysis for the expression of Oct4 and SSEA4 and SKY karyotyping established that the starting cells are undifferentiated and have a normal set of chromosomes. For single cell survival experiments, hES colonies were harvested after treatment with 1.5 mg/ml collagenase type IV (Invitrogen), separated from the MEF feeder cells by repeated washing by gravity, gently triturated to break up colonies into small aggregates, further dissociated into a single cell solution by trypsination (0.05% trypsin/0.04% EDTA) and transferred on MEF feeder cells at a density of 10000 cells/ml. Oct-4 positive colonies were counted six days after plating. […]
(§2) The pro-survival effects of activation of Notch and inhibition of JAK was tested on HSF-6 (NIH code UC06, http://escell.ucsf.edu), H1 (NIH code WA01, www.wicell.org) and H9 (NIH code WA09, www.wicell.org) hES cells. Singly dissociated hES cells were plated on mouse embryo fibroblasts (MEFs), treated daily for one week and colony numbers counted. […]

[1] = system: p38, SMAD1/5/8, MSK-1, STAT3 phosphorylation in hES cells; assay: Signalling immunoblots in hES cells; conditions: absence of MEF, within one hour
Description: Immunoblotting: Immunoblotting was performed as previously described (Panchision et al., Genes Dev 15:2094-110, 2001). The following antibodies were used in the experiments described below: pSer473-Akt (92715), pSer308-Akt (9275), pSer2448-mTOR (29715), pThr180/Tyr182-p38 (9211), pSMAD1/5/8 (9511) from Cell Signaling; STAT3 (482), pSer727-STAT3 (8001-R), pTyr705-STAT3 (7993) from Santa Cruz; Sonic Hedgehog (R&D, AF464), nucleostemin (McKay Lab), Hes3 (Chemicon, AB5706), α-tubulin (Sigma, T-6074).
To determine whether in the hES system JAK inhibition reduced p38 activity, cells were treated in the absence of MEF with JAK inhibitor for different times and assayed for p38 phosphorylation.

H1 hES cells = assay: hES colony number formation, H1; assay type: cell-based, human; conditions: H1 line
Excerpt: as §1, §2

HSF6 hES cells = assay: hES self-renewal over 3 passages; assay type: cell-based, human; conditions: 3 passages (3 weeks), daily treatments
Excerpt: To assess whether JAK inhibition was consistent with self-renewal of hES cells, HSF6 cells were continuously exposed to the JAK inhibitor by daily additions for three passages as single cells (three weeks) and analyzed for expression of antigens that distinguish the undifferentiated and differentiated states. The cells exposed to the drug, like the FGF2 controls, had normal morphology, were positive for Oct3/4, SSEA4, Tra-1-60, and Tra-1-81, and negative for SSEA1 (FIG. 5f, FIG. 11). To assess their ability to differentiate into neural precursors, embryoid bodies (EBs) were generated and many Sox1+/Nestin+ cells obtained (FIG. 11). Finally, to assess that the cells retained their ability to generate TH+ neurons, direct differentiation protocols were performed; a high proportion of TH+/TUJ1+ cells were obtained (FIG. 5g).

[2] = system: rat adult subventricular zone central nervous system stem cell cultures; assay: Survival of adult SVZ CNS stem cell cultures with insulin and Dll4; assay type: cell-based
Description: As there was a tight correlation between the Notch survival pathway and Hes3, it was investigated as to whether Hes3 is a mediator of the Notch pro-survival signalling. It was determined that both insulin and Notch activation promote the survival of foetal and adult neural stem cell cultures and their effects are additive (Tables 8-9).

Notch1 = assay: Notch activation (Notch1IC / Notch ICD) immunocytochemical detection; assay type: cell-based, mouse; conditions: Insulin withdrawal, 2 days and then treat for 1 h
Excerpt: Antibodies were used that specifically bind: Notch1IC (Chemicon, 5352), GFP (Molecular Probes, A11122), Oct3/4 (Santa Cruz, sc-5279), SSEA1 and SSEA4 (Developmental Studies HybridomaBank), Tra-1-60 (Chemicon, MAB4360), Tra-1-81 (Chemicon, MAB4381), human nestin (Chemicon, MAB5326), Sox-1 (Gift from Dr. R Lovell-Badge), TH (Pel-Freez, P40101-0), Tuj1 (Covance, MMS-435P), rat nestin (McKay Lab), GFAP (Dako, z0334), CNPase (Chemicon, MAB326), BrdU (Accurate, H5903), DCX (Santa Cruz, sc-8066), Sox2 (R&D, MAB2018), Hu (Molecular Probes, A21271).
To assay for Notch activation, cultures were treated with the Notch ligands for 1 hour and Notch1 activation was detected by immunocytochemical staining of Notch1IC (FIG. 1b).
It was determined that insulin facilitates Notch cleavage using immunocytochemical detection.

[3] = system: adult mouse subventricular zone central nervous system stem cell cultures from wild-type mice; assay: Survival of adult SVZ stem cell cultures, wild-type mice; assay type: cell-based
Description: (§3) It was determined that adult mouse subventricular zone central nervous system stem cell cultures from wild-type mice respond to D114 by generating twenty-four times more cells, whereas cultures from Hes3 knock-out mice respond to D114 by generating only three times more cells. Thus, in adult mouse neural stem cell cultures, D114 greatly promotes the survival of wild-type cells (23.7±1.7 fold increase), whereas it only slightly stimulates Hes3 knock-out culture survival (2.9±0.2 fold increase).

[4] = system: cultures from Hes3 knock-out mice; assay: Survival of adult SVZ stem cell cultures, Hes3 knock-out mice; assay type: cell-based, mouse; conditions: Hes3 knock-out culture
Description: as §3

## CC(C)(C)c1nc2c3ccc(F)cc3c3c(=O)[nH]ccc3c2[nH]1 [JAK Inhibitor, 2-(1,1-Dimethylethyl)-9-fluoro-3,6-dihydro-7H-benz[h]-imidaz[4,5-f]isoquinolin-7-one]
H9 hES cells
  colony number formation: 347.6%±59.5
[1]
  p38 phosphorylation: significantly reduced p38 phosphorylation
H1 hES cells
  colony number formation: 448.5%±57.4
HSF6 hES cells
  morphology and antigenic profile: retained normal morphology and antigenic profile of undifferentiated hES cells

## Delta-4: soluble Notch ligand Delta-4 (1389-D4) from R&D
[2]
  Cell #: High
Notch1
  Notch ICD: Low
[3]
  survival, fold increase in cells: 23.7±1.7 fold
[4]
  survival, fold increase in cells: 2.9±0.2 fold
